We go through four compounds from US20020120098A1, “Enhanced stimulation of erythropoiesis” (priority 1996, published 2002).

Type in all cases: cell-based, human
Test [1] concerns BFU-E. Description: Colony formation assay, CD34+/CD38- and CD34+/CD33- enriched cord blood cells: BFU-E. Particulars: 2 U/ml Epo, 5% O2, 14 days; vs untreated controls under same conditions. The text has this: CD34^+/CD38^− cells were isolated from cord blood LDMNC using the STEMSEP™ system (StemCell Technologies Inc., Vancouver, Canada). The CD34^+/CD38^− cell purity was increased from <0.1% in unfractionated LDMNC to ˜81% CD34^+/CD38^− cells post fractionation as determined by flow cytometry. To obtain the CD34^+/CD33^− cells CD34^+ cells were first isolated from cord blood LDMNC using the CEPRATE™ LC system (CellPro Inc., Bothell, Wash.). The CD34^+/CD33^− fraction was then enriched to ˜94% purity by flow fluorescence activated cell sorting (FACS; Epics Elite, Coulter Electronics, Hialeah, Fla.). The colony formation assay was conducted as described in Examples 1-4, except that 1×10^3 CD34^+ cells/ml were plated versus 1×10^3 unfractionated cord blood LDMNC/ml normally plated. Mean fold increase in BFU-E and CFU-E progenitor number produced from CD34^+ CD38^− enriched (a; n=2) and CD34^+ CD33^− enriched (b; n=1) cord blood LDMNC stimulated by 1.0 mg/ml HAo (15.6 μM) or HEMOLINK™ (15.6 μM), 100 μM hemin 250 μM FeCl3 in the presence of 2 U/ml Epo is shown in FIG. 13. Cultures were maintained at 5% O2 for 14 days. The results are expressed relative cells treated only with the respective vehicles and cultured under the same conditions.

The next test concerns erythroid progenitors. Description: Colony formation assay (CFA), cord blood LDMNC: erythroid progenitor colonies overall. Particulars: for growth of erythroid progenitor colonies in the absence of Epo: 0 U/ml Epo; for size and colour of erythroid colonies: 2 and 0.2 U/ml Epo, ambient or 5% O2, 1.0 mg/ml HAo or HEMOLINK, 100 μM hemin, day 14. The procedure: (§1) This technique, referred to as the colony formation assay (CFA), is the most widely used biological assay to identify and enumerate erythroid progenitors present in hematopoietic tissue such as blood and bone marrow. Cell populations containing erythroid progenitors are plated in semi-solid suspensions of methyl cellulose, agar, low melting agarose or related substances in nutrient culture medium containing 1-3 U/ml Epo and 10 ng/ml IL-3 to specifically stimulate erythroid progenitors. Plates are incubated at 37° C. for 14 days during which time the erythroid progenitors form characteristic hemoglobinized (red) colonies. Two distinct but related erythroid progenitors can be distinguished based on colony size and morphology: BFU-E, the most primitive recognizable erythroid progenitor forms large multilobular colonies whereas the more mature CFU-E forms smaller spherical colonies.
(§2) Adult hemoglobin was purified according to U.S Pat. Nos. 5,439,591 and 5,545,328 to obtain HAo and HEMOLINK™ was prepared from HAo according to U.S. Pat. No. 5,532,352. Human umbilical cord blood intended for discard was collected from the umbilical vein of placentas immediately postpartum into 10 ml vacutainer tubes containing 143 USP units/ml sodium heparin. Low density mononuclear cells were separated from red blood cells by centrifugation over a 1.077 g/ml density gradient Cells removed from the plasma/density gradient interface were incubated overnight in a tissue culture flask with 10 ml cell culture medium containing 10% fetal bovine serum, and non-adherent LDMNC were further purified with an additional density gradient step. The LDMNC were then plated into colony formation assays (CFA) on the second day of isolation. In the CFA, LDMNC were plated at a density of 1×10^5 cells/ml in Iscoves modified Dulbeccos cell culture medium containing 0.8% methyl-cellulose, 30% fetal bovine serum, 1% bovine serum albumin, 0.1 mM 2-mercaptoethanol and 2 mM L-glutamine. Unless indicated otherwise, under standard CFA conditions 2 U/ml Epo and 10 ng/ml IL-3 are added to the formulation to stimulate hematopoietic progenitor growth, specifically BFU-E, CFU-E and CFU-GM.
(§3) Each condition was tested in duplicate in from 2-18 independent experiments. Cultures were maintained in a humidified incubator at 37° C., 5% CO2 and ambient oxygen tensions. The number of hematopoietic progenitors was scored between days 13-15 by counting the number and types of colonies present.
(§4) Erythroid progenitor colony formation assays were conducted as described in Example 1 except that cultures were incubated at either ambient oxygen tensions (˜20% O2) or 5% O2. The reduced oxygen tension of 5% O2 approximates the physiological intravascular oxygen tension in mammals. The mean fold increase in cord blood BFU-E, CFU-E and CFU-GM progenitor number at 5% O2 produced by 1.0 mg/ml HAo (15.6 μM; n=11) or HEMOLINK™ (15.6 μM; n=6), 100 μM hemin (n=10), 250 μM FeCl3 (n=6) or no addition (n=17-18), is shown FIG. 2. Results are expressed relative to control cells treated only with respective vehicles and cultured at ambient oxygen tensions (˜20% O2; fold expansion=1.0; *p<0.05, **p<0.01).
(§5) Erythroid progenitor colony formation assays were conducted as described in Example 1 except that cultures were initiated in the presence of Epo concentrations ranging from 0-2 U/ml. The mean fold increase in cord blood BFU-E, CFU-E and CFU-GM progenitor number produced by 1.0 mg/ml HAo (15.6 μM; n=9) or HEMOLINK™ (15.6 μM; n=6), 100 μM hemin (n=8), 250 μM FeCl3 (n=6), or no addition (n=9-10) in the presence of reduced Epo concentrations (0.2 U/ml) is shown in FIG. 3. Cultures were maintained at ambient oxygen tensions (˜20% O2) for 14 days. Results are expressed relative to control cells at 2 U/ml Epo treated only with the respective vehicles (solid line at fold expansion=1.0; *p<0.05, **p<0 01). Erythroid progenitor colonies were undetectable in the absence of Epo. […]

Test [2] deals with BFU-E. Description: Colony formation assay (CFA), cord blood LDMNC: BFU-E colonies. As to conditions: for BFU-E progenitor number, fold increase: 2 U/ml Epo, ambient O2, vs vehicle control; for fold increase in BFU-E at 5% O2: 5% O2, 2 U/ml Epo, relative to untreated controls at ambient O2; for fold increase in BFU-E at 5% O2 / fold increase in BFU-E number over untreated controls (no addition) at 0.2 U/ml Epo: 1.0 mg/ml HAo or HEMOLINK; for fold increase in BFU-E number over untreated controls (no addition) at 0.2 U/ml Epo: 250 μM FeCl3. On the procedure:
as §1, §2, §3, §4, §5

The test system of another test is CFU-E. Description: Colony formation assay (CFA), cord blood LDMNC: CFU-E colonies. As to conditions: for CFU-E progenitor number, fold increase: 2 U/ml Epo, ambient O2, vs vehicle control; for fold increase in CFU-E at 5% O2: 5% O2, 2 U/ml Epo, 1.0 mg/ml HAo or HEMOLINK, 100 μM hemin, relative to untreated controls at ambient O2. The procedure:
as §1, §2, §3, §4, §5

[3] abbreviates: 1 mg/ml HEMOLINK plus 0-100 μM ganciclovir.

On to `[Cl][Fe]([Cl])[Cl]` [FeCl3], for which, in the test on BFU-E [1], the “increase in BFU-E from CD34+ enriched progenitor populations (in words)” value (“increase in BFU-E … (in words)” for short) was “to a lesser extent”. The “number of erythroid colonies at 0.2 U/ml Epo and 5% O2 (in words)” value in the test with erythroid progenitors (5% O2, 0.2 U/ml Epo, 250 μM FeCl3) is “did not significantly increase the number of erythroid colonies”. Moreover, the “fold expansion of erythroid progenitors at 5% O2 (in words)” value with erythroid progenitors (5% O2, 2 U/ml Epo, 250 μM FeCl3) was “did not increase the fold expansion of erythroid progenitors beyond that of the untreated controls at 5% O2”. Also, the “BFU-E progenitor number, fold increase” value in the test with BFU-E [2] (dose 1.0 μM) was 1.2 fold; in the test on BFU-E [2] (dose 10 μM), 1.4 fold; in the test on BFU-E [2] (dose 250 μM), “*1.7 fold”. The entries for the “CFU-E progenitor number, fold increase” value in the test on CFU-E (dose 1.0 μM), with CFU-E (dose 10 μM) and in the test with CFU-E (dose 250 μM) were 1.0 fold, 1.2 fold and 1.1 fold, respectively.

Consider `C=CC1=C(C)C2=Cc3c(C=C)c(C)c4[n]3[Fe-2]35([Cl])[n]6c(c(C)c(CCC(=O)O)c6=CC6=[N+]3C(=C4)C(C)=C6CCC(=O)O)=CC1=[N+]25` [hemin], for which the “increase in BFU-E … (in words)” value with BFU-E [1] is given as “stimulated an increase in BFU-E”. Also, the “growth of erythroid progenitor colonies in the absence of Epo” value (shortened to “growth of erythroid progenitor colonies”) in the test with erythroid progenitors is “could not support the growth of erythroid progenitor colonies in the absence of Epo”. For the same compound, the “size and colour of erythroid colonies” value in the test on erythroid progenitors was “mostly smaller and less red in color”. In addition, the “BFU-E number at 0.2 U/ml Epo compared with untreated controls at 2 U/ml Epo” value in the test with BFU-E [2] (0.2 U/ml Epo, ambient O2, 100 μM hemin) is given as “generated the same number of BFU-E as the untreated controls at 2 U/ml Epo”. Besides, in the test with BFU-E [2] (100 μM hemin), the “fold increase in BFU-E at 5% O2” value is ~8 fold. The “BFU-E progenitor number, fold increase” value in the test with BFU-E [2] (dose 1.0 μM) is 0.9 fold; with BFU-E [2] (dose 10 μM), 1.5 fold; in the test on BFU-E [2] (dose 250 μM), 2.2 fold. The “fold increase in CFU-E at 5% O2” value in the test on CFU-E is on record as ~3 fold. Moreover, the “CFU-E progenitor number, fold increase” value with CFU-E (dose 1.0 μM) is listed as 1.2 fold; with CFU-E (dose 10 μM) it was “*1.6 fold”; in the test on CFU-E (dose 64 μM), 1.8 fold; in the test with CFU-E (dose 250 μM), 2.2 fold.

As for “HAo: adult human hemoglobin obtained from red blood cells and purified by displacement chromatography; uncross linked product”, the “increase in BFU-E … (in words)” value with BFU-E [1] is on record as “stimulated an increase in BFU-E”. For the same compound, the “growth of erythroid progenitor colonies” value with erythroid progenitors is recorded as “could not support the growth of erythroid progenitor colonies in the absence of Epo”. Moreover, the “concentration at which significant stimulation of erythroid progenitor colony formation is observed” value in the test with erythroid progenitors (2 U/ml Epo, ambient O2) was determined as 7.8 µM. The “size and colour of erythroid colonies” value in the test with erythroid progenitors is “larger and redder”. In the test on BFU-E [2] (0.2 U/ml Epo, ambient O2), the “fold increase in BFU-E number over untreated controls (no addition) at 0.2 U/ml Epo” value is recorded as 3 fold. In addition, in the test on BFU-E [2] (100 μM hemin), the “fold increase in BFU-E at 5% O2” value was ~8 fold. For the same compound, the “BFU-E progenitor number, fold increase” value with BFU-E [2] (dose 10 μg/ml) is recorded as 1.1 fold; in the test with BFU-E [2] (dose 100 μg/ml), 1.3 fold; in the test with BFU-E [2] (dose 500 μg/ml), “**1.7 fold”. The “fold increase in CFU-E at 5% O2” value with CFU-E is ~3 fold. The “CFU-E progenitor number, fold increase” value in the test with CFU-E (dose 10 μg/ml) is on record as 1.2 fold; in the test on CFU-E (dose 100 μg/ml), 1.5 fold; in the test on CFU-E (dose 500 μg/ml), “*1.4 fold”.

For “HEMOLINK™: chemically crosslinked hemoglobin prepared by treating human hemoglobin with a polyaldehyde (O-raffinose)”, the “increase in BFU-E … (in words)” value with BFU-E [1] is “stimulated an increase in BFU-E”. Besides, in the test on erythroid progenitors, the “growth of erythroid progenitor colonies” value was “could not support the growth of erythroid progenitor colonies in the absence of Epo”; the “size and colour of erythroid colonies” value was “larger and redder”. Moreover, the “reduction of toxicity of ganciclovir to BFU-E” value with BFU-E [2] (setting [3]) is recorded as “about 10 fold”. Besides, the “fold increase in BFU-E number over untreated controls (no addition) at 0.2 U/ml Epo” value with BFU-E [2] (0.2 U/ml Epo, ambient O2) is listed as 3 fold. Besides, the “fold increase in BFU-E at 5% O2” value with BFU-E [2] (100 μM hemin) was ~8 fold. Besides, the “protection of CFU-E from ganciclovir toxicity” value in the test on CFU-E (setting [3]) is listed as “protects CFU-E”. For the same compound, the “fold increase in CFU-E at 5% O2” value with CFU-E is ~3 fold.
